# pKi: −log10 of the molar value.
# What was measured:
# [1] = target: Sodium-dependent noradrenaline transporter (Homo sapiens, UniProt P23975); experiment: Displacement of [3H]nisoxetine from NET
# [2] = target: Sodium-dependent dopamine transporter (Homo sapiens, UniProt Q01959); experiment: Displacement of [123I]RTI-55 from DAT
# Sequence of Sodium-dependent dopamine transporter (Q01959 whole entry): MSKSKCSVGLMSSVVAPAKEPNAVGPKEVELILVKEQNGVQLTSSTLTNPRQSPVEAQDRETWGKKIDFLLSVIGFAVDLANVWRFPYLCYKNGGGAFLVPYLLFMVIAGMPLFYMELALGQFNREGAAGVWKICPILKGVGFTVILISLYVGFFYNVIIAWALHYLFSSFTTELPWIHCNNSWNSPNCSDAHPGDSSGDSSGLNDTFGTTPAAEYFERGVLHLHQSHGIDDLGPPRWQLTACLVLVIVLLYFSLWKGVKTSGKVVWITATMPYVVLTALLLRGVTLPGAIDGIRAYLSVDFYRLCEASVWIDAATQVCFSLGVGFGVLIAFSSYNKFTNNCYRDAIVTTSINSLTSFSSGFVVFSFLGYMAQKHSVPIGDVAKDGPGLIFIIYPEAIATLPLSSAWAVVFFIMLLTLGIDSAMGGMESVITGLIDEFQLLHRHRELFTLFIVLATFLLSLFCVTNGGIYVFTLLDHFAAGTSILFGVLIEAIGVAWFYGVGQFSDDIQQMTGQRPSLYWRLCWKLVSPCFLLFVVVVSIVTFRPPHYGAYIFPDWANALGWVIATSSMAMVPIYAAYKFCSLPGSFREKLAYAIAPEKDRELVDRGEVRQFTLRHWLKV
# Sequence of Sodium-dependent noradrenaline transporter (P23975 whole entry): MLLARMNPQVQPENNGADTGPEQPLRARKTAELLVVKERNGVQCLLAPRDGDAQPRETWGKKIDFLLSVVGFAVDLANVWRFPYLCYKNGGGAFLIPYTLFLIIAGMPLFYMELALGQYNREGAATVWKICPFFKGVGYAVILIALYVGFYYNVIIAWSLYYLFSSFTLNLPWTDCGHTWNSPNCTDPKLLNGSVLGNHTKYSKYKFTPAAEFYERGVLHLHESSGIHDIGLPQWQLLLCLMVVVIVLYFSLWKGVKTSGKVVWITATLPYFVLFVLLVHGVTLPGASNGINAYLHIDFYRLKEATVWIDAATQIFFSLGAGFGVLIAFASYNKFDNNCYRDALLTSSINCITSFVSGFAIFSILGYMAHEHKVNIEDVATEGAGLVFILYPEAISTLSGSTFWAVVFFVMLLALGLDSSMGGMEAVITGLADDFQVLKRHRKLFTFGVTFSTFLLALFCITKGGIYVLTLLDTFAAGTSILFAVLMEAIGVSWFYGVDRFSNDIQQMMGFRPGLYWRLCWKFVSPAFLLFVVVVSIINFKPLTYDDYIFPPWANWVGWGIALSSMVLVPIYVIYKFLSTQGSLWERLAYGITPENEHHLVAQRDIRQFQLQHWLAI
structure (smiles),measurement,setting,value
COC(=O)C1C2CCC(CC1c1ccc(/C=C\I)cc1)N2 (configuration not stated),pKi,[1],7.82
same,pKi,[2],8.22
